Experimental data as given in the supplement of paper PMC5579334.
± gives the standard deviation of the averaged measurements.

Tests used:
[1] = system: S1507-2; assay: drug sensitivity score (DSS, CellTiter-Glo viability, 72 h) (DSS (dimensionless)); higher = more sensitive; extreme values may be limits of the assay
Summary of the method: (§1)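 Viability was scored by CellTiter-Glo ATP luminescence, scaled from vehicle to positive-control wells, with duplicates averaged where present. The cells, MPNST lines and primary human Schwann cells at 750–1000 per well, sat 72 h at 37 °C, 5% CO2, in 384-well plates preprinted with each compound at five concentrations in 10-fold steps. Four-parameter logistic fits were run on the data. These fits give drug sensitivity score and relative IC50 censored at the top concentration, and percent inhibition is reported at the top concentration.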

[2] = system: S462; assay: as above
Summary of the method: as §1

[3] = system: HSC2 (primary human Schwann cells); assay: as above
Summary of the method: as §1

[4] = system: HS-PSS; assay: as above
Summary of the method: as §1

[5] = system: ST8814; assay: as above
Summary of the method: as §1

[6] = system: STS26T; assay: as above
Summary of the method: as §1

[7] = system: HS-Sch-2; assay: as above
Summary of the method: as §1

[8] = system: HSC1 (primary human Schwann cells); assay: as above
Summary of the method: as §1

[9] = system: YST-1; assay: as above
Summary of the method: as §1

[10] = system: S1507-2; assay: % inhibition of CellTiter-Glo viability at highest tested concentration (72 h), relative to DMSO and benzethonium chloride controls; higher = more inhibition
Summary of the method: as §1

[11] = system: S462; assay: as above
Summary of the method: as §1

[12] = system: HSC2 (primary human Schwann cells); assay: as above
Summary of the method: as §1

[13] = system: HS-PSS; assay: as above
Summary of the method: as §1

[14] = system: ST8814; assay: as above
Summary of the method: as §1

[15] = system: STS26T; assay: as above
Summary of the method: as §1

[16] = system: HS-Sch-2; assay: as above
Summary of the method: as §1

[17] = system: HSC1 (primary human Schwann cells); assay: as above
Summary of the method: as §1

[18] = system: YST-1; assay: as above
Summary of the method: as §1

[19] = system: S1507-2; assay: drug sensitivity score (DSS, CellTox-Green cytotoxicity, 72 h) (DSS (dimensionless)); higher = more cytotoxic; extreme values may be limits of the assay
Summary of the method: (§2)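 MPNST cell lines and primary human Schwann cells were incubated 72 h at 37 °C in 384-well plates holding five 10-fold compound dilutions. CellTox-Green was added before seeding at a final 1:1000 dilution and reported fluorescence from DNA released by disrupted cells. Signals were scaled to vehicle and positive-control wells, and cultures failing plate quality control were dropped. Drug sensitivity score and relative IC50 come from four-parameter logistic fits, with IC50 censored at the top concentration.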

[20] = system: HSC2 (primary human Schwann cells); assay: as above
Summary of the method: as §2

[21] = system: HS-PSS; assay: as above
Summary of the method: as §2

[22] = system: ST8814; assay: as above
Summary of the method: as §2

[23] = system: STS26T; assay: as above
Summary of the method: as §2

[24] = system: HSC1 (primary human Schwann cells); assay: as above
Summary of the method: as §2

SMILES | drug sensitivity score [1] | drug sensitivity score [2] | drug sensitivity score [3] | drug sensitivity score [4] | drug sensitivity score [5] | drug sensitivity score [6] | drug sensitivity score [7] | drug sensitivity score [8] | drug sensitivity score [9] | % inhibition [10] [%] | % inhibition [11] [%] | % inhibition [12] [%] | % inhibition [13] [%] | % inhibition [14] [%] | % inhibition [15] [%] | % inhibition [16] [%] | % inhibition [17] [%] | % inhibition [18] [%] | drug sensitivity score [19] | drug sensitivity score [20] | drug sensitivity score [21] | drug sensitivity score [22] | drug sensitivity score [23] | drug sensitivity score [24]
FC(F)c1nc2ccccc2n1-c1nc(N2CCOCC2)nc(N2CCOCC2)n1 [ZSTK474] (max concentration tested 10000 nM) | 13.5 ± 2.1 | 8 ± 0.68 | 9.9 | 3.54 | 8.94 | 14.6 | 4.18 | 8.75 | 15.1 | 76.7 ± 9 | 59.4 ± 5 | 77.2 | 30.6 | 69.7 | 80 | 38.2 | 75.7 | 81.3 | 0.69 ± 0.011 | 0.497 | 0 | 0 | 0 | 0
CC1=NN(c2ccc(C(=O)O)cc2)C(=O)C1=Cc1ccc(-c2cc(C)c(C)cc2[N+](=O)[O-])o1 [C646] (max concentration tested 25000 nM) | 0.311 ± 0.44 | 0.301 ± 0.43 | 0 | 0.34 | 0 | 0 | 0 | 0 | 0.68 | 9.84 ± 4.1 | 1.13 ± 8.9 | -4.28 | 17.2 | 3.46 | 1.97 | -1.27 | -3.92 | 19.6 | 2.69 ± 3.8 | 1.71 | 0 | 0 | 0 | 0
CC(C)(C)c1nc(-c2cccc(NS(=O)(=O)c3c(F)cccc3F)c2F)c(-c2ccnc(N)n2)s1 [Dabrafenib] (max concentration tested 2500 nM) | 0.291 ± 0.41 | 1.99 ± 0.58 | 5.89 | 0.78 | 1.19 | 3.99 | 0.66 | 4.42 | 0.2 | 17.6 ± 9.1 | 35.5 ± 1.5 | 31.7 | 26.6 | 33 | 31.1 | 24.5 | 39.9 | 17.6 | 0 | 0.888 | 0.89 | 0 | 0 | 0.888
O=C(/C=C/c1cccc(S(=O)(=O)Nc2ccccc2)c1)NO [Belinostat] (max concentration tested 10000 nM) | 16.6 ± 0.76 | 12.7 ± 0.28 | 13.2 | 10.8 | 17.2 | 13 | 13.7 | 15.4 | 18.1 | 104 ± 1.3 | 102.5 ± 0.29 | 101 | 88.1 | 102 | 98.9 | 101 | 102 | 101 | 12.2 ± 2 | 8.85 | 4.69 | 12.4 | 12.7 | 8.65
COc1cc(F)c(F)c(Nc2ccc(I)cc2F)c1NS(=O)(=O)C1(C[C@H](O)CO)CC1 [Refametinib] (max concentration tested 10000 nM) | 13.8 ± 1.3 | 14.9 ± 1.8 | 10.5 | 5.39 | 14.8 | 8.43 | 6.81 | 8.11 | 0.24 | 86.7 ± 4.6 | 94.83 ± 0.55 | 69 | 63.2 | 99.1 | 53 | 75.5 | 69.2 | 17.5 | 11.1 ± 3.6 | 0.276 | 0.98 | 8.62 | 1.17 | 0
Sc1ncnc2nc[nH]c12 [Mercaptopurine] (max concentration tested 10000 nM) | 0 | 5.81 ± 1.6 | 0 | 1.06 | 10.2 | 7.5 | 7.89 | 0 | 0.53 | 7.52 ± 1.2 | 62.5 ± 20 | 3.85 | 18.8 | 43.7 | 74.5 | 59.9 | -2.23 | 13.2 | 0 | 0 | 0 | 0 | 0.135 | 0
COc1cc2/c(=N/c3ccc(Br)cc3F)nc[nH]c2cc1OCC1CCN(C)CC1 [Vandetanib] (max concentration tested 1000 nM) | 1.44 ± 2 | 0 | 0 | 4.01 | 0 | 0.185 | 0 | 0 | 0 | 28 ± 9.4 | 11.2 ± 6.6 | -4.21 | 34.2 | 1.05 | 14.5 | 8.38 | -0.207 | 2.38 | 0.78 ± 1.1 | 0 | 0.53 | 0 | 0 | 0
CS(=O)(=O)c1ccc(C(=O)Nc2ccc(Cl)c(-c3ccccn3)c2)c(Cl)c1 [Vismodegib] (max concentration tested 10000 nM) | 0 | 0 | 0 | 0.05 | 0 | 0 | 1.12 | 0 | 0 | 2.36 ± 1.7 | -4.72 ± 14 | -4.33 | 13.9 | -2.96 | 2.72 | 17.3 | -4.59 | 6.14 | 0 | 0 | 0 | 0 | 0 | 0
Cc1cc(Nc2cc(CN3CCOCC3)c3nc(C)c(Cc4ccc(Cl)cc4F)n3n2)n[nH]1 [Gandotinib] (max concentration tested 10000 nM) | 10.4 ± 1.9 | 11.7 ± 2.7 | 10.9 | 7.29 | 8.52 | 8.72 | 9.06 | 10.2 | 7.71 | 101.6 ± 0.37 | 96.5 ± 2.7 | 103 | 68 | 97.2 | 68.9 | 96.6 | 103 | 70.5 | 7.03 ± 1.3 | 7.38 | 0.55 | 5.3 | 3.96 | 8.02
CN1CCN(c2ccc3nc(-c4c(N)c5c(F)cccc5[nH]c4=O)[nH]c3c2)CC1 [Dovitinib] (max concentration tested 10000 nM) | 3.54 ± 3.6 | 0.655 ± 0.32 | 0.382 | 0 | 0 | 0.0001 | 0.84 | 1.65 | 0.32 | 21.7 ± 2.2 | 18.1 ± 0.51 | 16.2 | -2.95 | -2.1 | 10.4 | 22.3 | 19.1 | 17.6 | 0 | 0 | 0 | 0 | 0 | 0
COc1cc(OC2CCN(C)CC2)ccc1Nc1ncc2c(n1)n(C1CCCC1)c(=O)n2C [AZ 3146] (max concentration tested 10000 nM) | 5.68 ± 1.6 | 9.91 ± 0.79 | 2.78 | 6.35 | 6.15 | 6.58 | 8.57 | 2.64 | 6.64 | 87.86 ± 0.87 | 82.8 ± 4.9 | 54.7 | 75.4 | 92.4 | 62.1 | 95.6 | 53.1 | 68.7 | 2.07 ± 1.8 | 0.0952 | 1.72 | 5.94 | 4.54 | 0
CN(C)C/C=C/C(=O)Nc1cc2c(Nc3ccc(F)c(Cl)c3)ncnc2cc1O[C@H]1CCOC1 [Afatinib] (max concentration tested 1000 nM) | 1.88 ± 2.7 | 0 | 0 | 2.49 | 0 | 0 | 1.58 | 0 | 0 | 11.6 ± 4.3 | 2.97 ± 6.7 | 3.38 | 29.9 | 3.12 | 12.7 | 21.2 | 8.81 | 3.62 | 0 | 0 | 0 | 0 | 0 | 0
O=C(Nc1c[nH]nc1-c1nc2ccc(CN3CCOCC3)cc2[nH]1)NC1CC1 [AT9283] (max concentration tested 1000 nM) | 10.9 ± 1.9 | 8.755 ± 0.034 | 10.5 | 3.34 | 13 | 5.9 | 4.99 | 10.7 | 6.27 | 95.6 ± 4.4 | 84.48 ± 0.23 | 83 | 40.9 | 92.4 | 66.9 | 93.4 | 83.1 | 67.4 | 8.28 ± 1.4 | 5.2 | 0 | 15.5 | 8.27 | 4.98
